In patent US20190365907A1, “ZWITTERIONIC POLYMER-INSULIN COMPOSITIONS AND RELATED METHODS” (Wayne State University, priority 2017, published 2019):

Key:
[1] = system: streptozotocin (STZ) induced diabetic mice; assay: Blood glucose lowering after tail vein injection in STZ-induced diabetic mice; assay type: in vivo
Procedure: The mice were fasted during the glucose testing period.
The injection dose for the three samples were readily kept the same at 10 nmol/Kg insulin or its conjugate (for native insulin dose, 10 nmol/kg=1.5 IU/kg), by accurately controlling the feeding molar content of insulin for the conjugation reaction.
The in vivo bioavailability of insulin samples was evaluated by quantifying the area above the curve (AAC) of relative intensity of blood glucose concentration in FIG. 4B.

[2] = Hydrodynamic size by dynamic light scattering (DLS); assay type: physicochemical; details: pH 8.4 0.2M HEPES buffer, 25° C.; average±standard deviation, n=3
Procedure: The hydrodynamic sizes of the insulin and its conjugate samples were collected by a DLS method using a Malvern Nano-ZS Zetasizer at 25° C.
The hydrodynamic size of PCB-conjugated insulin was measured by a dynamic light scattering (DLS) method by using a Malvern Nano-ZS Zetasizer.

[3] = Circular dichroism secondary structure of insulin samples; assay type: physicochemical; details: far-UV CD, 0.2 mg/mL in 0.2 M pH 8.2 PBS buffer, CDSSTR analysis
Procedure: CD spectra were collected by using a Chirascan spectrophotometer from Applied Photophysics at 25° C. Insulin samples were dissolved in 0.2 M PBS buffer at 0.2 mg/ml. The […] CD spectra were measured from 200 to 250 nm with the light-path length of 1 mm. The scanning speed of CD spectra measurement was set at 200 nm/min. Each spectrum was the average of three scans to increase the signal-to-noise ratio of the measurements. The secondary structure proportions for insulin and its conjugates were analyzed using CDSSTR software.
The effect of polymer conjugation on the structure change of insulin was evaluated. Far-ultraviolet CD spectra were collected to quantify the effect of the zwitterionic polymer conjugation on insulin's secondary structure.

insulin receptor = target: T1, insulin receptor (Cricetulus griseus, UniProt A0A8C2MAM4); assay: In vitro bioactivity assay of insulin (phosphorylated AKT at Ser473 in CHO-M 1 cells); assay type: cell-based; details: 10 μg/mL, 45 minutes, FIG. 4C
T1 construct: host or cells: CHO-M1 cells
T1 sequence (A0A8C2MAM4 28-1372): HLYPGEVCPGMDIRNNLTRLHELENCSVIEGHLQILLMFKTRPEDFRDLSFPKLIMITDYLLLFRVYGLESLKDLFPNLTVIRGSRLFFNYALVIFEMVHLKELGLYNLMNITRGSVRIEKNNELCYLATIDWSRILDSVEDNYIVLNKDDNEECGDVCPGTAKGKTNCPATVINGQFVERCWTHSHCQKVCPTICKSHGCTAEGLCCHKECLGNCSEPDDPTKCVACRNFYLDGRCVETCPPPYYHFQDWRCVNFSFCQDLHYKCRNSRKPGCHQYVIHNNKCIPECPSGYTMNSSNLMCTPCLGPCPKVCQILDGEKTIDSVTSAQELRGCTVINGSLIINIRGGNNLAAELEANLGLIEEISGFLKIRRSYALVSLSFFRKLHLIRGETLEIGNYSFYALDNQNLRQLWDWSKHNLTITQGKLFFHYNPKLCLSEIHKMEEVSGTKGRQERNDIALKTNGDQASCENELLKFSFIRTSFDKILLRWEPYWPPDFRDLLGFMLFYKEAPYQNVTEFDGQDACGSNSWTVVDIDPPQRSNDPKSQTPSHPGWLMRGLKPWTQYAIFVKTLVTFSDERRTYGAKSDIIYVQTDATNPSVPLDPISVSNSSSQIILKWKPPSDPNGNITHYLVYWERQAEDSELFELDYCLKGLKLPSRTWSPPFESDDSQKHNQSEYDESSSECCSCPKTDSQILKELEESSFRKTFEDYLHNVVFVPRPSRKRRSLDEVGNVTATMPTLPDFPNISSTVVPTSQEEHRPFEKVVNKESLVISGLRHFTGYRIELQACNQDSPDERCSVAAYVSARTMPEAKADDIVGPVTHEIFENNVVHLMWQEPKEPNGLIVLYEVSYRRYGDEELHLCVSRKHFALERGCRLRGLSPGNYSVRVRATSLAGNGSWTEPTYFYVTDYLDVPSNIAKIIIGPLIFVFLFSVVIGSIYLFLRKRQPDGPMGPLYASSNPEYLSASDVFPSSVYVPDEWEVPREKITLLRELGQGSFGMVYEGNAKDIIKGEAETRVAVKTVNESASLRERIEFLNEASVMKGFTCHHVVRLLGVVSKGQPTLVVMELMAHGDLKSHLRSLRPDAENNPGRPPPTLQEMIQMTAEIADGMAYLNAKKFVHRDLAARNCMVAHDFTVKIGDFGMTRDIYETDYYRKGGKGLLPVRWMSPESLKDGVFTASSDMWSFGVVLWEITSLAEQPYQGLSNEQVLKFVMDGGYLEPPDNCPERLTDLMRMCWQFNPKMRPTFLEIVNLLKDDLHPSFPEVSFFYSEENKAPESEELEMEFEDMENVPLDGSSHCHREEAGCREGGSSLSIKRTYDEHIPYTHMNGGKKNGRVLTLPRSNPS
Procedure: About 25,000 CHO-M 1 cells/well (ATCC) were seeded in a 96-well tissue culture treated plate and incubate for 24 h before being cultured in serum-free medium. […] Then cells were lysed and a commercially available kit (Cisbio) was used to assay phosphorylated AKT at Ser473. The fluorescence emission at 665 and 620 nm was measured on a HTRF reader (BioTek, USA).
The relative activity was presented as the percentage relative to native insulin±standard deviation (n=6) * p<0.05, ** p<0.01, ns=not significant.

[4] = non-purified (rough) products, 10 nmol/Kg intravenous, FIG. 4A
[5] = purified conjugates, 10 nmol/kg intravenous, FIG. 4B

Substance | blood glucose lowering ability compared with native insulin [1, 4] | blood glucose lowering ability compared with native insulin [1, 5] | hydrodynamic size [2] [nm] | Random coil (secondary structure proportion) [3] [%] | activity lost in vitro compared with native insulin (insulin receptor)
PEG-insulin: Comparison conjugate of human recombinant insulin with commercially available PEG-NHS (5000 Da) | similar | did not show any better glucose lowering effect than native insulin | 4.2±0.7 | 30 | about 27%
PCB-insulin: Conjugate of human recombinant insulin with NHS ester terminated zwitterionic carboxybetaine polymer (~5000 Da), one chain per insulin, prioritized at LysB29 | significantly higher blood glucose lowering ability than native insulin | even higher blood glucose lowering ability than native insulin |  |  | 
